In patent publication US20070207145A1, “MOUSE/HUMAN […] ANTI-PHE[…] AND USES THEREOF” (BOARD OF TRUSTEES OF THE UNIVERSITY OF ARKANSAS, priority 2003, published 2007):

How the values were obtained:
PCP receptor = settings: drug discrimination and PCP receptor binding assays; cited from earlier work
[1] = tested on: PCP's adverse health effects; experiment: dose-dependent effects of mAb6B5 IgG on health and behavior of rats continuously infused with PCP; format: in vivo
Experimental: This series of experiments assessed the dose-dependent effects mAb6B5 IgG on measures of health and behavior (Laurenzana et al., 2003). Rats were implanted with s.c. osmotic minipumps filled to deliver PCP at a rate of 18 mg/kg/day. Baseline PCP-induced locomotor activity was assessed (24 hr after start of PCP infusion), and then saline or various doses of mAb6B5 IgG were administered i.v. The doses of mAb6B5 ranged from 1 mol-eq of serum PCP concentration at steady state (1.53 g/kg of mAb6B5 IgG), down to 0.003 mol-eq (0.005 g/kg).
On a daily basis, rats were assessed on the amount of food eaten, body weight, general health, and evidence of chromodacryorrhea (“bloody tears” or red lacrimal secretions), an indicator of PCP-induced stress. […] The dose-dependent effects of mAb6B5 IgG on body weight produced some of the most interesting and profound effects (FIG. 8). […] PCP-induced reductions in feeding and drinking behavior obviously contributed to the weight loss in these groups. But their eating behavior normalized by day 4, probably secondary to the development of tolerance to the drug. This allowed these rats to better maintain their health and well-being. […] The PCP-induced weight loss achieved maximum on about day 4 of the experiment. […] 25% of the rats died or had to be sacrificed for humane reasons. […]

[2] = rats, s.c. infusion 18 mg/kg/day; cited from earlier work
[3] = in humans; cited from earlier work
[4] = radioimmunoassay (RIA) with [3H]PCP; format: binding
Experimental: A 100 μl aliquot of [^3H]PCP (30,000-40,000 dpm) in RIA buffer (50 mM Tris-HCl adjusted to pH 7.6, 0.15M NaCl, 0.1% BSA and 0.2% NaN3) was added to 50×14 mm sample tubes (Sarsedt, Princeton, N.J.). Then 100 γl of appropriate concentration of test ligand was added to duplicate tubes. […] A 100 μl aliquot of this dilution was then added to all tubes except the tubes for non-specific binding. To nonspecific binding tubes 100 μl of RIA buffer was added. After vortex mixing, the tubes were incubated at 4-8° C. overnight. Next, 1 ml of RIA buffer containing 5% goat anti-mouse IgG (Pel-Freez Biologicals, Rogers, Ark.) and 5% polyethylene glycol 8000 (J. T. Baker Chemical Co.) was added. The tubes were incubated for 15 min at 4-8° C. and centrifuged at the same temperature for 15 min at 2000×g to precipitate the antibody-bound reactivity. The supernatant fluid was aspirated and the pellet was resuspended in the same test tube with 2 ml of scintillation fluid (Liquiscint, National Diagnostics, Manville, N.J.). The tube was placed in a 7 ml scintillation vial and the concentration of [^3H]PCP was determined by liquid scintillation spectrometry.
The IC50 for both methods very closely approximates the affinity of an antibody.

c1csc(C2(N3CCCCC3)CCCCC2)c1 [TCP, 1-[1-(2-thienyl)cyclohexyl]piperidine]
potency relative to PCP (times more potent) (PCP receptor): about 1.3 times

c1ccc(C2(N3CCCCC3)CCCCC2)cc1 [PCP, Phencyclidine]
rats that died or had to be sacrificed ([1]; PCP-saline and PCP-0.003 mol Eq groups, days 4 through 7, 18 mg/kg/day): 25% | animals that died as a result of PCP administration ([1]; repeated PCP-saline control experiment): 1 of 4 | half-life (t1/2) [2]: 4 h | volume of distribution (Vd) [3]: 6.2 L/kg

CCNC1(c2ccccc2)CCCCC1 [PCE, N-ethyl-1-phenylcyclohexylamine]
potency relative to PCP (times more potent) (PCP receptor): ~6 times

B1: ch-mAb6B5: mouse/human chimeric anti-PCP monoclonal antibody: mAb6B5 variable domains on human IgG2 heavy chain and kappa light chain constant domains (antibody)
heavy: MECSCVMLFLLSGTAGVLSEVQLQQSGPELVKPGASVKMSCKASGYTGTDYYIHWMKQSHGKSLEWIGYIYPNNGGNGYNQKFKGKATLTVDKSSSTAYMELRTLTSEDSAVYYCGRSTWDDFDYWGQGTTLTVSSASTKGPSVFPLAPCSRSTSESTAALGCLVKDYFPEPVTVSWNSGALTSGVHTFPAVLQSSGLYSLSSVVTVPSSNFGTQTYTCNVDHKPSNTKVDKTVERKCCVECPPCPAPPVAGPSVFLFPPKPKDTLMISRTPEVTCVVVDVSHEDPEVQFNWYVDGVEVHNAKTKPREEQFNSTFRVVSVLTVVHQDWLNGKEYKCKVSNKGLPAPIEKTISKTKGQPREPQVYTLPPSREEMTKNQVSLTCLVKGFYPSDIAVEWESNGQPENNYKTTPPMLDSDGSFFLYSKLTVDKSRWQQGNVFSCSVMHEALHNHYTQKSLSLSPGK
light: MKLPVRLLVLMFWIPASSSDVLMTQTPLSLPVSLGDQASISCRSSQTIVHSNGNTYLEWYLQKPGQSPKLLIYKVSNRFSGVPDRFSGSGSGTDFTLKISRVEAEDLGVYYCFQGTHAPYTFGGGTKLEIKTAAAPSVFIFPPSDEQLKSGTASVVCLLNNFYPREAKVQWKVDNALQSGNSQESVTEQDSKDSTYSLSSTLTLSKADYEKHKVYACEVTHQGLSSPVTKSFNRGEC
modifications: Amino acid sequence of anti-PCP ch-mAb6B5 heavy chain.; Amino acid sequence of anti-PCP ch-mAb6B5 light chain.
IC50 [4]: 1.6 nM | Kd ([4]; chimeric antibody): 1.6 nM
